Source: patent publication US20130274270A1, “POLYMORPHS OF 3-CHLORO-4[(2R)-2-(4-CHLOROPHENYL)-4-[(1R)-1-(4-CYANOPHENYL)ETHYL]-1-PIPERAZINYL]-BENZONITRILE, PHARMACEUTICAL COMPOSITIONS AND METHOD OF USE COMPRISING SAID POLYMORPHS, AND A PROCESS FOR PREPARING THEM” (priority 2010, published 2013)
Structures can show the parent of a compound that is named as a salt.

How the values were obtained:
Type in all cases: physicochemical
Photosensitivity = conditions: especially in solution
[1] = Thermogravimetric analysis (TGA)
Experimental: (§1) All powder X-ray diffraction (PXRD) data was collected using a Rigaku Miniflex instrument. Samples were analyzed on silicon zero background holders from 2 to 40 degrees two theta with a step size of 0.02 degrees two theta and a scan time of 0.6 seconds per step. Differential scanning calorimetry (DSC) data was collected using a Q100 DSC from TA Instruments. Samples were sealed in hermetic aluminum pans with two pinholes in the lid. All were analyzed under nitrogen purge. Vapor sorption analysis was performed using a SGA-100 from VTI Scientific Instruments. Thermogravimetric analysis (TGA) data was collected on a Q500 TGA from TA Instruments. Samples were analyzed in platinum pans under a nitrogen purge.

[2] = Competition slurry experiments
Experimental: Competition slurry experiments were conducted by combining approximately 100 milligrams of starting material with 1 milliliter of solvent in a 4 milliliter amber glass vial. A polytetrafluoroethylene coated magnetic stir bar was added to each vial. The slurry sample was stirred for one day and checked to confirm solids were still present. The sample was then seeded with forms identified during the polymorph screening and continued stirring at room temperature for 9 days. Solids were collected and analyzed to determine their crystal form.
The evaporative crystallization experiments from solutions produced another polymorph, termed Form II, and two suspected solvates or hydrates. Competition slurries were prepared with Form I, Form II and the suspected solvates or hydrates to confirm they were metastable with respect to Form 1. The competition slurries were prepared by dispersing Form II in isopropanol, a water/methanol mixture at a water activity of 0.5, and water.
A variable-temperature competition slurry was repeated using Forms I and III by suspending approximately 100 mg of each form in 2 milliliters of isopropanol at 4° C., room temperature, 40° C., and 50° C. The slurries were allowed to stir for 11 days and checked by PXRD. […] Afterwards, the solutions were seeded with Form I and stirred for 1 day.

[3] = Temperature-solubility profile in isopropanol (Crystal 16)
Experimental: To further characterize Form III, temperature-solubility profiles were constructed for both Form I and III. Different amounts of each form were suspended in 1 milliliter of isopropanol to prepare solutions of varying concentrations. The experiments were conducted on Crystal 16 to generate a temperature-solubility profile. The suspensions were slowly heated from 20° C. to 75° C. at 0.1° C./min and then cooled to 0° C. at a rate of 0.1° C. /min. The stirring rate was 700 rpm during the entire experiment.

[4] = Solvent-mediated polymorphic transformation experiments (slurry / slow evaporation, PXRD)
Experimental: Solvent-mediated polymorphic transformation experiments were conducted by combining approximately 100 mg of starting material with 1 milliliter of solvent in a 4 mL amber glass vial. A polytetrafluoroethylene coated magnetic stir bar was added to each vial. For suspensions, the vials were sealed with polytetrafluoroethylene-lined caps and stirred using magnetic stir plates at 4° C., room temperature, or 50° C. for 14 days. For solutions, the vials were covered with aluminum foil and the solutions were slowly evaporated for 14 days. Solids were collected and analyzed for changes in crystal form. For this work, both slurry and evaporative crystallization was performed. Slurry experiments are utilized to identify the thermodynamically stable form while evaporative crystallizations favor the identification of metastable forms.

[5] = Change in crystal form as a function of heating (DSC heating rates); conditions: DSC at 2° C., 10° C. and 20° C. per minute
Experimental: Change in crystal form as a function of heating was evaluated by analyzing samples of the material using the DSC at heating rates of 2, 10, and 20° C. per minute.

DSC, heat of fusion rule = conditions: monotropically related forms
Experimental: as §1

[6] = Change in crystal form as a function of pressure (Carver press); conditions: 13 mm die, approximately 4000 pounds, approximately 30 seconds
Experimental: Change in crystal form as a function of pressure was evaluated by pressing 86.0 mg of material in a 13 millimeter die at approximately 4000 pounds for approximately 30 seconds with a carver press.

[7] = Vapor sorption analysis (change in crystal form as a function of moisture); conditions: 25° C.
Experimental: as §1
Change in crystal form as a function of moisture was evaluated by a SGA-100 vapor sorption instrument from VTI Scientific Instruments. Approximately 10 to 15 mg of material was exposed to a relative humidity range from 5% to 95% at 25° C. for 2 cycles.

[8] = Change in crystal form as a function of milling; conditions: ground for 5 seconds at 3800 rpm
Experimental: Change in crystal form as a function of milling was conducted by grinding 79.2 milligrams of material in a stainless steel liner with a stainless steel ball pestle using a high speed mixer and amalgamator. The material was ground for 5 seconds at 3800 rpm.

[9] = Acetonitrile, RT/Solution, slowly evaporated 14 days
[10] = Dichloromethane, RT/Solution, slowly evaporated 14 days
[11] = Isopropanol, RT/Suspension, stirred 14 days
[12] = Water, RT/Suspension, stirred 14 days
[13] = Water/Methanol, 4° C./Suspension, stirred 14 days
[14] = Water/Methanol, 50° C./Suspension, stirred 14 days
[15] = Water/Methanol, RT/Suspension, stirred 14 days

Question: Which sensitivity to light (Photosensitivity) does the source give for `C[C@H](c1ccc(C#N)cc1)N1CCN(c2ccc(C#N)cc2Cl)[C@H](c2ccc(Cl)cc2)C1` [Compound A, 3-Chloro-4[(2R)-2-(4-chlorophenyl)-4-[(1R)-1-(4-cyanophenyl)ethyl]-1-piperazinyl]-benzonitrile] here?
Answer: Its sensitivity to light is “photosensitive”.

Question: For `C[C@H](c1ccc(C#N)cc1)N1CCN(c2ccc(C#N)cc2Cl)[C@H](c2ccc(Cl)cc2)C1` [xinafoate salt], which “weight loss (TGA)” value ([1]; at 146° C.) is on record?
Answer: Its value is 0.2%.

Question: And the “behaviour of the salt on melting (large weight loss at melt)” value ([1]; melt at 163.5° C.)?
Answer: The value was “disproportionates or decomposes with melting”.

Question: And the “weight loss (TGA)” value ([1]; starting from 161° C. and ending at 236° C.)?
Answer: The value was 27.2%.

Question: Which sensitivity to light (Photosensitivity) does the source give for `CC(c1ccc(C#N)cc1)N1CCN(c2ccc(C#N)cc2Cl)C(c2ccc(Cl)cc2)C1` (stereo not drawn) [Formula II] here?
Answer: Its sensitivity to light is “photosensitive”.

Question: For `C[C@H](c1ccc(C#N)cc1)N1CCN(c2ccc(C#N)cc2Cl)[C@H](c2ccc(Cl)cc2)C1` [Form III, 3-Chloro-4[(2R)-2-(4-chlorophenyl)-4-[(1R)-1-(4-cyanophenyl)ethyl]-1-piperazinyl]-benzonitrile], which “Thermodynamic stability by competition slurry experiments” value [2] is on record?
Answer: The value was “the most stable form”.

Question: What about the “PXRD result of variable-temperature competition slurry of Forms I and III” value ([2]; about 100 mg of each form in 2 mL isopropanol at 4° C., room temperature, 40° C. and 50° C., 11 days) of the same compound?
Answer: Its value is “Form III was formed under all conditions”.

Question: What about the “PXRD result after seeding with Form I” value ([2]; isopropanol slurries seeded with Form I and stirred for 1 day) of the same compound?
Answer: The value was “remained as Form III”.

Question: What about the “thermodynamic stability from temperature-solubility profile” value ([3]; above 29.4° C.) of the same compound?
Answer: Its value is “the most thermodynamically stable anhydrous crystalline form”.

Question: And the relative solubility ([3]; at temperatures greater than 29.4° C.)?
Answer: Its relative solubility is “less soluble than Form I”.

Question: And the decomposition temperature [1]?
Answer: The decomposition temperature was 312 °C.

Question: And the “weight loss (TGA)” value ([1]; at 228° C.)?
Answer: The value was 0.07%.

Question: Which “Crystal form of solids collected from competition slurry” value (shortened to “Crystal form of solids collected”) ([2]; Form II dispersed in isopropanol, seeded with the other forms, room temperature) does the source give for `C[C@H](c1ccc(C#N)cc1)N1CCN(c2ccc(C#N)cc2Cl)[C@H](c2ccc(Cl)cc2)C1` [Form II, 3-Chloro-4[(2R)-2-(4-chlorophenyl)-4-[(1R)-1-(4-cyanophenyl)ethyl]-1-piperazinyl]-benzonitrile] here?
Answer: The value was “consistent with Form I”.

Question: What about the “Crystal form of solids collected” value ([2]; Form II dispersed in water, seeded, room temperature) of the same compound?
Answer: Its value is “stayed as Form II”.

Question: And the “Crystal form of solids collected” value ([2]; Form II dispersed in water/methanol mixture at a water activity of 0.5, seeded, room temperature)?
Answer: Its value is “consistent with Form I”.

Question: And the “PXRD Result” value [4, 9]?
Answer: Its value is “Form II”.

Question: What about the “PXRD Result” value [4, 10] of the same compound?
Answer: Its value is “Form II”.

Question: What about the “PXRD Result” value [4, 11] of the same compound?
Answer: Its value is “Form I”.

Question: And the “PXRD Result” value [4, 12]?
Answer: Its value is “Form II”.

Question: What about the “PXRD Result” value [4, 13] of the same compound?
Answer: The value was “Form I”.

Question: And the “PXRD Result” value [4, 14]?
Answer: Its value is “Form I”.

Question: And the “PXRD Result” value [4, 15]?
Answer: Its value is “Form I”.

Question: And the decomposition temperature [1]?
Answer: The decomposition temperature was 310 °C.

Question: And the “weight loss (TGA)” value ([1]; at 226° C.)?
Answer: The value was 0.6%.

Question: Which “Thermodynamic stability by competition slurry experiments” value [2] does the source give for `C[C@H](c1ccc(C#N)cc1)N1CCN(c2ccc(C#N)cc2Cl)[C@H](c2ccc(Cl)cc2)C1` [Form I, 3-Chloro-4[(2R)-2-(4-chlorophenyl)-4-[(1R)-1-(4-cyanophenyl)ethyl]-1-piperazinyl]-benzonitrile] here?
Answer: Its value is “a stable form”.

Question: What about the “change in crystal form as a function of heating rate” value [5] of the same compound?
Answer: Its value is “no change in the crystal form”.

Question: What about the “relative thermodynamic stability of Form I and Form II (heat of fusion rule)” value (DSC, heat of fusion rule) of the same compound?
Answer: Its value is “the more thermodynamically stable”.

Question: And the “PXRD Result” value [4, 9]?
Answer: Its value is “Form 2”.

Question: What about the “PXRD Result” value [4, 10] of the same compound?
Answer: The value was “Form 2”.

Question: And the “PXRD Result” value [4, 11]?
Answer: The value was “Form 1”.

Question: What about the “PXRD Result” value ([4]; Toluene, 50° C./Solution, 14 days) of the same compound?
Answer: Its value is “Amorphous”.

Question: What about the “PXRD Result” value [4, 12] of the same compound?
Answer: Its value is “Form 1”.

Question: And the “PXRD Result” value [4, 13]?
Answer: Its value is “Form 1”.

Question: What about the “PXRD Result” value [4, 14] of the same compound?
Answer: Its value is “Form 1”.

Question: And the “PXRD Result” value [4, 15]?
Answer: The value was “Form 1”.

Question: And the “Thermodynamic stability indicated by slurry experiments” value ([4]; all slurry experiments except those in water, regardless of starting form, water activity or temperature)?
Answer: The value was “the most thermodynamically stable form”.

Question: What about the “change in crystal form after pressing” value [6] of the same compound?
Answer: The value was “no significant change in the crystal form”.

Question: And the “polymorphic form change after vapor sorption analysis (PXRD before and after)” value ([7]; 5% to 95% relative humidity)?
Answer: The value was “no polymorphic form change”.

Question: And the “moisture absorbed by weight” value ([7]; between 5% and 95% relative humidity, 2 cycles)?
Answer: Its value is 0.07%.

Question: And the decomposition temperature [1]?
Answer: The decomposition temperature was “above 295 °C”.

Question: What about the “weight loss (TGA)” value ([1]; at 204° C.) of the same compound?
Answer: The value was 0.6%.

Question: And the “change in crystal form after milling” value [8]?
Answer: The value was “no significant change in the crystal form”.
